Several values for one entry are separate records, joined by “and”; a condition that tells them apart may be missing. Identical values can stand only once. Like-named read-outs stand apart in the source and are kept apart here.
Assays:
[1] = target: MCL1/Bim (Homo sapiens (Human), UniProt Q07820); test: MCL1/Bim Binding AlphaLISA Assay; conditions: recombinant human 6xHis-MCL1 (171-327), biotinylated Bim peptide (51-76)
Protocol: MCL1/Bim Binding AlphaLISA Assay.
Inhibition of the MCL1 and Bim interaction was measured in the following AlphaLISA assay.
Recombinant human MCL1 protein (C-terminal 6×His Tagged MCL1 containing residues 171-327) was generated at Gilead Sciences, Inc. (Foster City, Calif.). A biotinylated peptide derived from human Bim (residues 51-76) was purchased from CPC Scientific (Sunnyvale, Calif.). (CPC 834113). AlphaLISA anti-6His- acceptor beads (AL128R), AlphaScreen Streptavidin donor beads (6760002B), and Proxiplate-384 Plus (6008289) were purchased from PerkinElmer.
The AlphaLISA assay was performed in a 384-well Proxiplate in a total volume of […]. The reaction mixture contained 0.0625 nM 6×His-MCL1 (171-327), 0.0625 nM biotinylated-Bim peptide, 10 μg/mL AlphaLISA anti-6×His-AlphaLISA acceptor beads, 40 μg/mL AlphaScreen streptavidin donor beads, and serially diluted test compounds in the binding buffer (20 mM Hepes, pH 7.5 (Teknova H1035); 150 mM NaCl (Promega V4221); 0.002% Brij 35 (Thermo Scientific 20150); 1 mM Dithiothreitol (DTT) Solution (Affymetrix 70726); 0.01% BSA (BioLabs B9000S)). 1,000× test compounds were pre-spotted onto 384-well Proxiplate (Labcyte Echo) by Echo 555 Liquid Handler (Labcyte Inc., San Jose, Calif.) followed by incubation of 5 μL MCL1(171-327) for 1 hour. Then 5 μL Bim (51-76) was added and incubated for 2 hours. Five μL AlphaLISA anti-6His-AlphaLISA acceptor beads were then added for 1 hour followed by addition of 5 μL AlphaScreen streptavidin donor beads for 1 hour. The reaction plates were then read on an Envision multimode reader (PerkinElmer) using AlphaScreen settings. Percent inhibition was calculated as shown below: % Inhibition=100%*(Well−Neg)/(Pos−Neg) Neg: negative control, DMSO Pos: positive control, no MCL1 protein, no biotinylated-Bim peptide

[2] = tested on: SKBR3 cells; test: SKBR3 Cell Viability Assay; type: cell-based; conditions: CellTiter Glo, read-out: MCL1 CV SKBR3 EC50
Protocol: SKBR3 Cell Viability Assay Materials
SKBR3 Cells (ATCC HTB-30) were obtained from ATCC (Manassas, Va.) and cultured in McCoy 5A's medium (ATCC 30-2007)+10% fetal bovine serum (SH30071.03, HyClone, Pittsburgh, Pa.) plus 1× Penicillin-Streptomycin L-glutamine (Corning 30-009-CI, Corning, N.Y.).
The cell viability assay was conducted in a 384-well tissue culture plate (Grenier 781086, Monroe, N.C.) in a total volume of 70 μL. Test compounds were prepared in 1,000×, serially diluted, and pre-spotted into 384-well tissue culture plate by Echo 555 Liquid Handler (Labcyte Inc., San Jose, Calif.). Seventy μL of 6,000 SKBR3 cells were dispensed into each well of the plate and incubated at 37° C. with 5% CO2 for 72 hours. At the end of incubation, 2× CellTiter Glo (CTG) reagents (1 part buffer with 2 parts substrate) (Promega, Madison, Wis.) were prepared, and the plate and the reagent were equilibrated to room temperature for 30 minutes. CTG reagent was added to each plate by Biomek FX at 20 μL/well with 5 times pipetting and mixing to induce cell lysis. Luminescence was read by Envision multimode reader (PerkinElmer). Percent inhibition was calculated as followed: % Inhibition=100%*(Well−Neg)/(Pos−Neg) Neg, negative control, DMSO Pos, positive control, 10 μM Puromycin

[3] = Homo sapiens, SK-BR-3, 72 hours

Sequence of MCL1/Bim (Q07820 171-327): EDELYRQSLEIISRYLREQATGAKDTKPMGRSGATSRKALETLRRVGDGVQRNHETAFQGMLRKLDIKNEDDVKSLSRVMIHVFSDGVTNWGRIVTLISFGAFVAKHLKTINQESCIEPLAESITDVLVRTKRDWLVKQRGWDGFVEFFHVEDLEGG

Row | Compound | IC50 [1] | EC50 [2, 3] [nM] | EC50 ([2]; 72 hours) [nM]
1 | COc1nn(C)cc1C(=O)N[S@@]1(=O)=NC(=O)c2ccc3c(c2)N(C[C@@H]2CC[C@H]2[C@@H](OC)/C=C/C(O)(CC(=O)N(C)C)[C@H](C)C1)C[C@@]1(CCCc2cc(Cl)ccc21)CO3 (mixture of isomers) [Example 124] | 0.033 nM | 10.1 | 
2 | COc1nn(C)cc1C(=O)N[S@@]1(=O)=NC(=O)c2ccc3c(c2)N(C[C@@H]2CC[C@H]2/C=C/CC[C@H](C)C1)C[C@@]1(CCCc2cc(Cl)ccc21)CO3 (mixture of isomers) [Example 129] | 0.142 nM |  | 1210
3 | COc1nn(C)cc1C(=O)N[S@@]1(=O)=NC(=O)c2ccc3c(c2)N(C[C@@H]2CC[C@H]2C/C=C/C[C@H](C)C1)C[C@@]1(CCCc2cc(Cl)ccc21)CO3 (mixture of isomers) [Example 130] | 0.46 nM |  | 2560
4 | CCCO[C@H]1/C=C/C[C@H](C)C[S@@](=O)(NC(=O)c2cn(C)nc2OC)=NC(=O)c2ccc3c(c2)N(C[C@@H]2CC[C@H]21)C[C@@]1(CCCc2cc(Cl)ccc21)CO3 (mixture of isomers) [Example 137] | 1.77 nM |  | 561
5 | COc1nn(C)cc1C(=O)N[S@@]1(=O)=NC(=O)c2ccc3c(c2)N(C[C@@H]2CC[C@H]2[C@H]2OCCCC2CC[C@H](C)C1)C[C@@]1(CCCc2cc(Cl)ccc21)CO3 (mixture of isomers) [Example 138] | 1.54 nM |  | 1050
6 | COc1nn(C)cc1C(=O)N[S@@]1(=O)=NC(=O)c2ccc3c(c2)N(C[C@@H]2CC[C@H]2[C@H]2OC(O)C[C@@H]2CC[C@H](C)C1)C[C@@]1(CCCc2cc(Cl)ccc21)CC3 (mixture of isomers) [Example 150] | 0.035 nM | 114 | 
7 | COc1nn(C)cc1C(=O)N[S@@]1(=O)=NC(=O)c2ccc3c(c2)N(C[C@@H]2CC[C@H]2[C@H]2OCC[C@@H]2C[C@H](OC)[C@H](C)C1)C[C@@]1(CCCc2cc(Cl)ccc21)CO3 (mixture of isomers) [Example 155] | 0.072 nM | 88.9 | 
8 | CO[C@H]1/C=C/C[C@H](C)C[S@@](=O)(NC(=O)N[C@H]2C[C@@H]2OC)=NC(=O)c2ccc3c(n2)N(C[C@@H]2CC[C@H]21)C[C@@]1(CCCc2cc(Cl)ccc21)CO3 (mixture of isomers) [Example 188] | 0.06 nM | 31.9 | 
9 | COc1nn(C)cc1C(=O)N[S@@]1(=O)=NC(=O)c2ccc3c(n2)N(C[C@@H]2CC[C@H]2[C@@H](OC)/C=C/[C@H](O)[C@H](C)C1)C[C@@]1(CCCc2cc(Cl)ccc21)CO3 (mixture of isomers) [Example 196] | 0.04 nM | 81.4 | 
10 | CO[C@H]1/C=C/C[C@H](C)C[S@@](=O)(Nc2cnccn2)=NC(=O)c2ccc3c(c2)N(C[C@@H]2CC[C@H]21)C[C@@]1(CCCc2cc(Cl)ccc21)CO3 [Example 1] | 0.221 nM | 1390 | 
11 | CO[C@H]1/C=C/C[C@H](C)C[S@@](=O)(Nc2ncnc3c2cnn3C)=NC(=O)c2ccc3c(c2)N(C[C@@H]2CC[C@H]21)C[C@@]1(CCCc2cc(Cl)ccc21)CO3 [Example 4] | 0.196 nM | 240 | 
12 | CO[C@H]1/C=C/C[C@H](C)C[S@@](=O)(Nc2cnc(C#N)cn2)=NC(=O)c2ccc3c(c2)N(C[C@@H]2CC[C@H]21)C[C@@]1(CCCc2cc(Cl)ccc21)CO3 [Example 5] | 0.584 nM | 4180 | 
13 | CO[C@H]1/C=C/C[C@H](C)C[S@@](=O)(Nc2cncc(C#N)n2)=NC(=O)c2ccc3c(c2)N(C[C@@H]2CC[C@H]21)C[C@@]1(CCCc2cc(Cl)ccc21)CO3 [Example 6] | 0.891 nM | 4390 | 
14 | CO[C@H]1/C=C/C[C@H](C)C[S@@](=O)(Nc2ncnc3nn(C)cc23)=NC(=O)c2ccc3c(c2)N(C[C@@H]2CC[C@H]21)C[C@@]1(CCCc2cc(Cl)ccc21)CO3 [Example 8] | 0.061 nM | 26.5 | 
15 | CO[C@H]1/C=C/C[C@H](C)C[S@@](=O)(Nc2nc(Cl)nc3nn(C)cc23)=NC(=O)c2ccc3c(c2)N(C[C@@H]2CC[C@H]21)C[C@@]1(CCCc2cc(Cl)ccc21)CO3 [Example 9] | 0.11 nM | 170 | 
16 | COc1nc(N[S@@]2(=O)=NC(=O)c3ccc4c(c3)N(C[C@@H]3CC[C@H]3[C@@H](OC)/C=C/C[C@H](C)C2)C[C@@]2(CCCc3cc(Cl)ccc32)CO4)c2cn(C)nc2n1 [Example 10] | 0.084 nM | 47.6 | 
17 | CO[C@H]1/C=C/C[C@H](C)C[S@@](=O)(Nc2nc(C)nc3nn(C)cc23)=NC(=O)c2ccc3c(c2)N(C[C@@H]2CC[C@H]21)C[C@@]1(CCCc2cc(Cl)ccc21)CO3 [Example 12] | 0.129 nM | 38.7 | 
18 | COc1nnc(NS2(=O)=NC(=O)c3ccc4c(c3)N(C[C@@H]3CC[C@H]3[C@@H](OC)/C=C/C[C@H](C)C2)C[C@@]2(CCCc3cc(Cl)ccc32)CO4)c2nn(C)cc12 (stereo partly shown) [Example 17] | 2.39 nM |  | 4550
19 | CNc1nc(N[S@@]2(=O)=NC(=O)c3ccc4c(c3)N(C[C@@H]3CC[C@H]3[C@@H](OC)/C=C/C[C@H](C)C2)C[C@@]2(CCCc3cc(Cl)ccc32)CO4)c2cn(C)nc2n1 [Example 18] | 0.042 nM | 19.6 | 
20 | CO[C@H]1/C=C/C[C@H](C)C[S@@](=O)(Nc2nc(N(C)C)nc3nn(C)cc23)=NC(=O)c2ccc3c(c2)N(C[C@@H]2CC[C@H]21)C[C@@]1(CCCc2cc(Cl)ccc21)CO3 [Example 19] | 0.066 nM | 37.8 | 
21 | CO[C@H]1/C=C/C[C@H](C)C[S@@](=O)(Nc2nc(NCCN3CCOCC3)nc3nn(C)cc23)=NC(=O)c2ccc3c(c2)N(C[C@@H]2CC[C@H]21)C[C@@]1(CCCc2cc(Cl)ccc21)CO3 [Example 20] | 0.313 nM | 41.3 | 
22 | COc1ccc2c(N[S@@]3(=O)=NC(=O)c4ccc5c(c4)N(C[C@@H]4CC[C@H]4[C@@H](OC)/C=C/C[C@H](C)C3)C[C@@]3(CCCc4cc(Cl)ccc43)CO5)ncnc2c1 [Example 21] | 0.156 nM | 882 | 
23 | COc1ncc2c(N[S@@]3(=O)=NC(=O)c4ccc5c(c4)N(C[C@@H]4CC[C@H]4[C@@H](OC)/C=C/C[C@H](C)C3)C[C@@]3(CCCc4cc(Cl)ccc43)CO5)ncnc2n1 [Example 22] | 0.121 nM | 169 | 
24 | CO[C@H]1/C=C/C[C@H](C)C[S@@](=O)(NC(=O)c2cn(C)nc2N2CCN3CCOC[C@@H]3C2)=NC(=O)c2ccc3c(c2)N(C[C@@H]2CC[C@H]21)C[C@@]1(CCCc2cc(Cl)ccc21)CO3 [Example 23] | 0.083 nM | 17.3 | 
25 | CO[C@H]1/C=C/C[C@H](C)C[S@@](=O)(NC(=O)c2cn(C)nc2N2CCN(C3COC3)CC2)=NC(=O)c2ccc3c(c2)N(C[C@@H]2CC[C@H]21)C[C@@]1(CCCc2cc(Cl)ccc21)CO3 [Example 24] | 0.026 nM | 10.3 | 
26 | CO[C@H]1/C=C/CCC[S@@](=O)(Nc2ncnc3nn(C)cc23)=NC(=O)c2ccc3c(c2)N(C[C@@H]2CC[C@H]21)C[C@@]1(CCCc2cc(Cl)ccc21)CO3 [Example 26] | 0.224 nM and 0.233 nM | 119 | 

— US11667652B2, “MCL1 inhibitors” (Gilead Sciences, Inc., priority 2019, dated 2023)
